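1) Cells in 96-well plates. 2) Compound, 48 h, 5 concentrations. 3) Linear interpolation between surrounding doses. 4) Unreached endpoint = highest concentration. GI50 is the concentration that inhibits growth by half. Definition used: TGI = concentration required for complete inhibition of growth.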
What was measured:
Assay in all cases: NCI tumour cell line growth inhibition, 48 h
786-0 renal = tested on: 786-0 renal
A498 renal = tested on: A498 renal
A549 NSCLC = tested on: A549 NSCLC
ACHN renal = tested on: ACHN renal
BT-549 breast = tested on: BT-549 breast
CAKI-1 renal = tested on: CAKI-1 renal
CCRF-CEM leukemia = tested on: CCRF-CEM leukemia
COLO 205 colon = tested on: COLO 205 colon
DU-145 prostate = tested on: DU-145 prostate
EKVX NSCLC = tested on: EKVX NSCLC
HCC-2998 colon = tested on: HCC-2998 colon
HCT-116 colon = tested on: HCT-116 colon
HCT-15 colon = tested on: HCT-15 colon
HL-60(TB) leukemia = tested on: HL-60(TB) leukemia
HOP-62 NSCLC = tested on: HOP-62 NSCLC
HOP-92 NSCLC = tested on: HOP-92 NSCLC
HS 578T breast = tested on: HS 578T breast
HT29 colon = tested on: HT29 colon
IGROV1 ovarian = tested on: IGROV1 ovarian
K-562 leukemia = tested on: K-562 leukemia
KM12 colon = tested on: KM12 colon
LOX IMVI melanoma = tested on: LOX IMVI melanoma
MALME-3M melanoma = tested on: MALME-3M melanoma
MCF7 breast = tested on: MCF7 breast
MDA-MB-231 breast = tested on: MDA-MB-231 breast
MDA-MB-435 = tested on: MDA-MB-435
MOLT-4 leukemia = tested on: MOLT-4 leukemia
NCI-H226 lung = tested on: NCI-H226 lung
NCI-H23 lung = tested on: NCI-H23 lung
NCI-H460 lung = tested on: NCI-H460 lung
NCI-H522 lung = tested on: NCI-H522 lung
OVCAR-4 ovarian = tested on: OVCAR-4 ovarian
OVCAR-5 ovarian = tested on: OVCAR-5 ovarian
OVCAR-8 ovarian = tested on: OVCAR-8 ovarian
PC-3 prostate = tested on: PC-3 prostate
RPMI-8226 leukemia = tested on: RPMI-8226 leukemia
RXF 393 renal = tested on: RXF 393 renal
SF-268 CNS = tested on: SF-268 CNS
SF-295 CNS = tested on: SF-295 CNS
SF-539 CNS = tested on: SF-539 CNS
SK-MEL-2 melanoma = tested on: SK-MEL-2 melanoma
SK-MEL-28 melanoma = tested on: SK-MEL-28 melanoma
SK-MEL-5 melanoma = tested on: SK-MEL-5 melanoma
SK-OV-3 ovarian = tested on: SK-OV-3 ovarian
SN12C renal = tested on: SN12C renal
SNB-19 CNS = tested on: SNB-19 CNS
SNB-75 CNS = tested on: SNB-75 CNS
SR leukemia = tested on: SR leukemia
SW-620 colon = tested on: SW-620 colon
T-47D breast = tested on: T-47D breast
TK-10 renal = tested on: TK-10 renal
U251 CNS = tested on: U251 CNS
UACC-257 melanoma = tested on: UACC-257 melanoma
UACC-62 melanoma = tested on: UACC-62 melanoma
UO-31 renal = tested on: UO-31 renal

SMILES: Oc1ccc(CSc2nnc(-c3ccccc3)o2)c2cccnc12
- GI50 (786-0 renal): 3.14 µM
- TGI (786-0 renal): 11.9 µM
- GI50 (A498 renal): 4.1 µM
- TGI (A498 renal): > 100 µM
- GI50 (A549 NSCLC): 2.69 µM
- TGI (A549 NSCLC): > 100 µM
- GI50 (ACHN renal): 2.03 µM
- TGI (ACHN renal): 5.89 µM
- GI50 (BT-549 breast): 0.923 µM
- TGI (BT-549 breast): > 100 µM
- GI50 (CAKI-1 renal): 2.87 µM
- TGI (CAKI-1 renal): > 100 µM
- GI50 (CCRF-CEM leukemia): 1.13 µM
- TGI (CCRF-CEM leukemia): > 100 µM
- GI50 (COLO 205 colon): 59.3 µM
- TGI (COLO 205 colon): > 100 µM
- GI50 (DU-145 prostate): 3.41 µM
- TGI (DU-145 prostate): > 100 µM
- GI50 (EKVX NSCLC): 2.62 µM
- TGI (EKVX NSCLC): > 100 µM
- GI50 (HCC-2998 colon): 2.26 µM
- TGI (HCC-2998 colon): > 100 µM
- GI50 (HCT-116 colon): 1.65 µM
- TGI (HCT-116 colon): > 100 µM
- GI50 (HCT-15 colon): 0.797 µM
- TGI (HCT-15 colon): > 100 µM
- GI50 (HL-60(TB) leukemia): 1.39 µM
- TGI (HL-60(TB) leukemia): 6.62 µM
- GI50 (HOP-62 NSCLC): 2.33 µM
- TGI (HOP-62 NSCLC): 30.6 µM
- GI50 (HOP-92 NSCLC): 0.499 µM
- TGI (HOP-92 NSCLC): 5.36 µM
- GI50 (HS 578T breast): 0.721 µM
- TGI (HS 578T breast): > 100 µM
- GI50 (HT29 colon): 6.97 µM
- TGI (HT29 colon): > 100 µM
- GI50 (IGROV1 ovarian): 2.42 µM
- TGI (IGROV1 ovarian): > 100 µM
- GI50 (K-562 leukemia): 2.05 µM
- TGI (K-562 leukemia): > 100 µM
- GI50 (KM12 colon): 0.724 µM
- TGI (KM12 colon): > 100 µM
- GI50 (LOX IMVI melanoma): 1.56 µM
- TGI (LOX IMVI melanoma): 11.3 µM
- GI50 (MALME-3M melanoma): 2.8 µM
- TGI (MALME-3M melanoma): > 100 µM
- GI50 (MCF7 breast): 2.45 µM
- TGI (MCF7 breast): > 100 µM
- GI50 (MDA-MB-231 breast): 4.01 µM
- TGI (MDA-MB-231 breast): > 100 µM
- GI50 (MDA-MB-435): 1.08 µM
- TGI (MDA-MB-435): > 100 µM
- GI50 (MOLT-4 leukemia): 2.03 µM
- TGI (MOLT-4 leukemia): > 100 µM
- GI50 (NCI-H226 lung): 3.78 µM
- TGI (NCI-H226 lung): > 100 µM
- GI50 (NCI-H23 lung): 2.44 µM
- TGI (NCI-H23 lung): 14 µM
- GI50 (NCI-H460 lung): 0.527 µM
- TGI (NCI-H460 lung): > 100 µM
- GI50 (NCI-H522 lung): 2.33 µM
- TGI (NCI-H522 lung): > 100 µM
- GI50 (OVCAR-4 ovarian): 4.34 µM
- TGI (OVCAR-4 ovarian): > 100 µM
- GI50 (OVCAR-5 ovarian): 6.65 µM
- TGI (OVCAR-5 ovarian): > 100 µM
- GI50 (OVCAR-8 ovarian): 1.77 µM
- TGI (OVCAR-8 ovarian): > 100 µM
- GI50 (PC-3 prostate): 1.03 µM
- TGI (PC-3 prostate): > 100 µM
- GI50 (RPMI-8226 leukemia): 0.772 µM
- TGI (RPMI-8226 leukemia): > 100 µM
- GI50 (RXF 393 renal): 3.27 µM
- TGI (RXF 393 renal): 97.2 µM
- GI50 (SF-268 CNS): 0.92 µM
- TGI (SF-268 CNS): > 100 µM
- GI50 (SF-295 CNS): 1.39 µM
- TGI (SF-295 CNS): 21 µM
- GI50 (SF-539 CNS): 1.49 µM
- TGI (SF-539 CNS): 15.8 µM
- GI50 (SK-MEL-2 melanoma): 2.55 µM
- TGI (SK-MEL-2 melanoma): 29.8 µM
- GI50 (SK-MEL-28 melanoma): 2.29 µM
- TGI (SK-MEL-28 melanoma): > 100 µM
- GI50 (SK-MEL-5 melanoma): 1.83 µM
- TGI (SK-MEL-5 melanoma): 6.4 µM
- GI50 (SK-OV-3 ovarian): 2.87 µM
- TGI (SK-OV-3 ovarian): 15 µM
- GI50 (SN12C renal): 2.64 µM
- TGI (SN12C renal): > 100 µM
- GI50 (SNB-19 CNS): 0.817 µM
- TGI (SNB-19 CNS): 19.3 µM
- GI50 (SNB-75 CNS): 1.47 µM
- TGI (SNB-75 CNS): 15.6 µM
- GI50 (SR leukemia): 0.873 µM
- TGI (SR leukemia): > 100 µM
- GI50 (SW-620 colon): 2.57 µM
- TGI (SW-620 colon): > 100 µM
- GI50 (T-47D breast): 2.55 µM
- TGI (T-47D breast): > 100 µM
- GI50 (TK-10 renal): 2.52 µM
- TGI (TK-10 renal): 9.86 µM
- GI50 (U251 CNS): 0.783 µM
- TGI (U251 CNS): > 100 µM
- GI50 (UACC-257 melanoma): 2.62 µM
- TGI (UACC-257 melanoma): 8.92 µM
- GI50 (UACC-62 melanoma): 2.19 µM
- TGI (UACC-62 melanoma): 6.01 µM
- GI50 (UO-31 renal): 1.56 µM
- TGI (UO-31 renal): 7.47 µM

From PubChem BioAssay (NCI)
